# Laboratory results: publication PMC8776092, “A Toxoplasma gondii Oxopurine Transporter Binds Nucleobases and Nucleosides Using Different Binding Modes” (International Journal of Molecular Sciences, 2022)
# Where “and” joins values, the source holds several entries; their conditions need not be identical. Equal values may be shown once. Read-outs that look alike come from different tables or passages of the source.
# Target: T1, Tg244440 (Toxoplasma gondii, UniProt A0A125YNC9)
# T1 sequence (A0A125YNC9 1-462): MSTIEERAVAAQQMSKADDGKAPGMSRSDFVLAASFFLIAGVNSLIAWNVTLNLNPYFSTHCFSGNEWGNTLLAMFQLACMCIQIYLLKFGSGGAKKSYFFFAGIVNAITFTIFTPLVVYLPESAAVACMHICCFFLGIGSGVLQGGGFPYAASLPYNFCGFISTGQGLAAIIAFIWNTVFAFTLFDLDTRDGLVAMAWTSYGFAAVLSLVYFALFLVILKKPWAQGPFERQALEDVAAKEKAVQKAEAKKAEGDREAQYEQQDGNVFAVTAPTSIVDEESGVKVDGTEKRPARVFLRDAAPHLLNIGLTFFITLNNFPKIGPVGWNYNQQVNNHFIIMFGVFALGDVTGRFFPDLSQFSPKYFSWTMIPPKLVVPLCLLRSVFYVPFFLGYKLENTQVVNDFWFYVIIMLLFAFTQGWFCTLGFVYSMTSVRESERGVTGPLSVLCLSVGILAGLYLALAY
# Assay: [3H]-guanine uptake and its inhibition in T. brucei TbNB-KO procyclics expressing Tg244440 (clone F5)
# Format: cell-based
# Conditions: for Ki: competition with 50 nM [3H]-guanine, 30 s, Cheng-Prusoff; for ΔG^0 (Gibbs free energy of interaction): calculated from Km or Ki, ΔG0 = −RTln(Ki)
# Method: Briefly, PCF cells of T. brucei in logarithmic growth were harvested by centrifugation at 1000× g for 10 min, washed twice in AB and then resuspended in fresh buffer at a final density of 10^8 cells/mL. […] Immediately after finishing the assay, all tubes were flash-frozen in liquid nitrogen and the cell pellets were cut into scintillation vials and lysed with a solution of 2% SDS for one hour under agitation. Then, 3 mL of scintillation fluid (Scintilogic U, Lablogic) was added to each vial and left agitating overnight on a rocking platform. The next morning, the vials were vigorously shaken to ensure optimal mixing and the scintillation was measured in a 300SL (Hidex) scintillation counter. All assays were carried out in triplicate. All experimental data such as Km, Ki and Vmax values are the average and SEM of at least three separate experiments, each in triplicate, unless otherwise indicated.
# Background scintillation was measured in vials containing no cells or radiolabeled substrate, and counts associated with extracellular radiolabel were calculated from samples where cells were briefly incubated with the same concentration of radiolabel, but in the presence of saturating concentrations of non-radiolabeled substrate before centrifugation through oil. The average of the three control replicates was subtracted from each data point.
Structure (SMILES),Ki (Ki) [µM],ΔG^0 (Gibbs free energy of interaction) [kcal/mol],other results
Nc1ccnc2c1ncn2[C@@H]1O[C@H](CO)[C@@H](O)[C@H]1O [1-deazaadenosine],191 ± 10,-5.07,δ(ΔG^0) relative to Adenosine: 0.621 kcal/mol
O=C1CC=Nc2nc[nH]c21 [1-deazahypoxanthine],194 ± 43,-5.07,δ(ΔG^0) relative to Hypoxanthine: 2.63 kcal/mol
OC[C@H]1O[C@@H](n2cnc3c(O)ccnc32)[C@H](O)[C@@H]1O [1-deazainosine],524 ± 53,–,δ(ΔG^0) relative to Inosine: 2.89 kcal/mol
"Nc1nc(N)c2[nH]cnc2n1 [2,6-diaminopurine]",211 ± 3.5,-5.02,δ(ΔG^0) relative to Adenine: -0.406 kcal/mol
Nc1ncnc2c1ncn2[C@H]1C[C@H](O)[C@@H](CO)O1 [2′-deoxyadenosine],83.9 ± 6.2,-5.57,δ(ΔG^0) relative to Adenosine: 0.12 kcal/mol
Nc1nc2c(ncn2[C@H]2C[C@H](O)[C@@H](CO)O2)c(=O)[nH]1 [2′-deoxyguanosine],281 ± 6,-4.85,δ(ΔG^0) relative to Guanosine: 2.63 kcal/mol; δ(ΔG^0) relative to Guanosine (listed as 2′-Deoxyguanosine): 2.63 kcal/mol
OC[C@H]1O[C@@H](n2cnc3c(O)ncnc32)C[C@@H]1O [2′-deoxyinosine],117 ± 12,-5.35,δ(ΔG^0) relative to Inosine: 1.98 kcal/mol
Nc1nccc2c1ncn2[C@@H]1O[C@H](CO)[C@@H](O)[C@H]1O [3-deazaadenosine],1220 ± 140,-3.97,δ(ΔG^0) relative to Adenosine: 1.72 kcal/mol
O=c1[nH]ccc2nc[nH]c12 [3-deazahypoxanthine],59.5 ± 7.2,-5.76,δ(ΔG^0) relative to Hypoxanthine: 1.94 kcal/mol
Cn1c(=O)[nH]c(=O)c2[nH]cnc21 [3-methylxanthine],14.6 ± 3.1,-6.6,–
"Nc1ncnc2c1ccn2[C@@H]1O[C@H](CO)C[C@H]1O [3′-deoxy,7-deazaadenosine]",797 ± 116,-4.23,δ(ΔG^0) relative to Adenosine: 1.46 kcal/mol
Nc1ncnc2c1ncn2[C@@H]1O[C@H](CO)C[C@H]1O [3′-deoxyadenosine],71.9 ± 2.3,-5.64,δ(ΔG^0) relative to Adenosine: 0.024 kcal/mol
Nc1nc2c(ncn2[C@@H]2O[C@H](CO)C[C@H]2O)c(=O)[nH]1 [3′-deoxyguanosine],196 ± 12,-5.07,δ(ΔG^0) relative to Guanosine: 2.25 kcal/mol and 2.41 kcal/mol
OC[C@@H]1C[C@@H](O)[C@H](n2cnc3c(O)ncnc32)O1 [3′-deoxyinosine],102 ± 15,-5.45,δ(ΔG^0) relative to Inosine: 1.91 kcal/mol
C[C@H]1O[C@@H](n2cnc3c(N)ncnc32)[C@H](O)[C@@H]1O [5′-deoxyadenosine],85.2 ± 4.2,-5.54,δ(ΔG^0) relative to Adenosine: 0.14 kcal/mol
C[C@H]1O[C@@H](n2cnc3c(O)ncnc32)[C@H](O)[C@@H]1O [5′-deoxyinosine],35.3 ± 3,-6.07,δ(ΔG^0) relative to Inosine: 1.29 kcal/mol
Clc1ncnc2nc[nH]c12 [6-Chloropurine],109 ± 8,-5.4,δ(ΔG^0) relative to Hypoxanthine: 2.29 kcal/mol
Sc1ncnc2nc[nH]c12 [6-Mercaptopurine],3.6 ± 0.8,-7.43,δ(ΔG^0) relative to Hypoxanthine: 0.287 kcal/mol
"CCOc1ncnc2c1c(Cl)cn2[C@@H]1O[C@H](CO)[C@@H](O)[C@H]1O [6-O-ethyl,7-deaza,7-Cl-inosine]",–,-5.14,Ki (read-out: Ki): 169 ± 10 µM; δ(ΔG^0) relative to Inosine: 2.2 kcal/mol
"COc1ncnc2c1c(Cl)cn2[C@@H]1O[C@H](CO)[C@@H](O)[C@H]1O [6-O-methyl,7-deaza,7-Cl-inosine]",–,-6,Ki (read-out: Ki): 39.6 ± 2.8 µM; δ(ΔG^0) relative to Inosine: 1.36 kcal/mol

Structure (SMILES),Ki (Ki) [µM],ΔG^0 (Gibbs free energy of interaction) [kcal/mol],other results
Nc1nc2nc[nH]c2c(=S)[nH]1 [6-Thioguanine],1.64 ± 0.25,-7.89,δ(ΔG^0) relative to Guanine: 0.17 kcal/mol
OC[C@H]1O[C@@H](n2cnc3c(S)ncnc32)[C@H](O)[C@@H]1O [6-thioinosine],7.3 ± 1.2,-7,δ(ΔG^0) relative to Inosine: 0.335 kcal/mol
O=c1[nH]cnc2[nH]nc(Br)c12 [7-Br-allopurinol],–,-5.71,Ki (read-out: Ki): 65.7 ± 3.7 µM
OC[C@H]1O[C@@H](n2ccc3c(O)ncnc32)C[C@@H]1O [7-deaza-2′-deoxyinosine],52.3 ± 8.4,-5.83,δ(ΔG^0) relative to 2′-Deoxyinosine (relative to 2′-Deoxyinosine): -0.478 kcal/mol
OC[C@@H]1C[C@@H](O)[C@H](n2ccc3c(O)ncnc32)O1 [7-deaza-3′-deoxyinosine],70.8 ± 11.2,-5.66,δ(ΔG^0) relative to 3′-Deoxyinosine (relative to 3′-Deoxyinosine): -0.22 kcal/mol
OC[C@H]1O[C@@H](n2cc(Br)c3c(O)ncnc32)[C@H](O)[C@@H]1O [7-deaza-7-Bromoinosine],7.8 ± 1.2,-6.98,Affinity for Tg244440 (in words): high affinity; δ(ΔG^0) relative to Inosine: 0.382 kcal/mol
OC[C@H]1O[C@@H](n2cc(Cl)c3c(O)ncnc32)[C@H](O)[C@@H]1O [7-deaza-7-Chloroinosine],8.9 ± 1.3,-6.88,Affinity for Tg244440 (in words): high affinity; δ(ΔG^0) relative to Inosine: 0.454 kcal/mol
Nc1nc2c(c(=O)[nH]1)CC=N2 [7-deazaguanine],49.2 ± 5.8,-5.88,δ(ΔG^0) relative to Guanine: 2.17 kcal/mol
O=c1[nH]cnc2c1CC=N2 [7-deazahypoxanthine],318 ± 30,-4.78,δ(ΔG^0) relative to Hypoxanthine: 2.94 kcal/mol
OC[C@H]1O[C@@H](n2ccc3c(O)ncnc32)[C@H](O)[C@@H]1O [7-deazainosine],6.32 ± 0.32,-7.1,δ(ΔG^0) relative to Inosine: 0.263 kcal/mol
O=c1[nH]cnc2nn[nH]c12 [8-azahypoxanthine],> 1000,–,inhibition at 1000 µM (read-out: Inhibition of the transport of 50 nM [3H]-guanine): < 50%; δ(ΔG^0) relative to Hypoxanthine: >3.61 kcal/mol
"Cn1cnc2c(=O)cc[nH]c21 [9-Me,1-deazahypoxanthine]",–,–,Ki (read-out: Ki): > 1000 µM; δ(ΔG^0) relative to Hypoxanthine: >3.61 kcal/mol
Nc1nc2cc[nH]c2c(=O)[nH]1 [9-deazaguanine],9.64 ± 1.59,-6.84,δ(ΔG^0) relative to Guanine: 1.22 kcal/mol
O=c1[nH]cnc2cc[nH]c12 [9-deazahypoxanthine],9.12 ± 0.66,-6.88,δ(ΔG^0) relative to Hypoxanthine: 0.837 kcal/mol
O=c1[nH]c(=O)c2[nH]ccc2[nH]1 [9-deazaxanthine],48.2 ± 5.4,-5.88,δ(ΔG^0) relative to Xanthine (relative to Xanthine): 0.072 kcal/mol
Nc1ncnc2[nH]cnc12 [Adenine],425 ± 80,-4.59,Affinity for Tg244440 (in words): Low affinity; δ(ΔG^0) relative to Hypoxanthine: 3.11 kcal/mol
Oc1ncnc2[nH]ncc12 [Allopurinol],185 ± 15,-5.09,δ(ΔG^0) relative to Hypoxanthine: 2.61 kcal/mol
Nc1ncnc2n[nH]cc12 [Aminopurinol],–,-4.97,Ki (read-out: Ki): 223 ± 27 µM; δ(ΔG^0) relative to Adenine: -0.382 kcal/mol
Nc1nc2c(ncn2[C@@H]2O[C@H](CO)[C@@H](O)[C@H]2O)c(=O)[nH]1 [Guanosine],3.3 ± 0.3,-7.48,δ(ΔG^0) relative to Guanine: 0.574 kcal/mol
"OC[C@H]1O[C@@H](n2cnc3cncnc32)[C@H](O)[C@@H]1O [Nebularine, 9-(β-D-ribofuranosyl)purine]",491 ± 75,-4.52,ΔG^0 (Gibbs free energy of interaction) (listed as nebularine): 4.52 kcal/mol; δ(ΔG^0) relative to Adenosine: 1.17 kcal/mol; δ(ΔG^0) relative to Inosine: 2.84 kcal/mol
